Results: patent publication US10137112B2, “Methods for treating hyperuricemia in patients with gout using halofenate or halofenic acid and a second urate-lowering agent” (CymaBay Therapeutics, Inc., priority 2011, dated 2018)
“And” between values parts separate entries of the source, which are not always exact repeats. Equal entries are not always repeated.

How the values were obtained:
serum uric acid (sUA) [1] = tested on: serum uric acid (sUA)
Method: A randomized, double-blind, placebo-controlled study to evaluate the safety and efficacy of daily oral doses of between 400 to 600 mg of arhalofenate (i.e., (−)-halofenate) in combination with 300 mg oral doses of allopurinol was conducted in gout patients with inadequate hypouricemic (uric acid lowering) response to allopurinol alone.
Patients who met the final eligibility criteria were randomized to each of 3 study arms in the following manner (1:1:1):
Arhalofenate 400 mg (plus allopurinol 300 mg)
Arhalofenate 600 mg (plus allopurinol 300 mg)
Placebo (plus allopurinol 300 mg)
The serum uric acid (sUA) levels were assessed at Day 1, prior to giving blinded study medication, and at Visits Week 2, 3, and 4.
Patients in all treatment groups also took allopurinol 300 mg once daily orally starting at Week −3 during the run-in and continuing through Week 4.
The randomized treatment regimens were as follows (Day 1 through Week 4):
Treatment Group #1: Arhalofenate 400 mg (plus allopurinol)
Treatment Group #2: Arhalofenate 600 mg (plus allopurinol)
Treatment Group #3: Placebo (plus allopurinol)
The effects of each of the three treatment groups were assessed as the change in sUA from baseline to the end of the treatment period for the following endpoints:
Percent change in sUA from baseline at Week 4 of treatment
The proportion of patients achieving a sUA<6 mg/dL at week 4 of treatment
The proportion of patients achieving a sUA<5 mg/dL at week 4 of treatment
The proportion of patients achieving a sUA<4 mg/dL at week 4 of treatment

serum uric acid = details: monotherapy at 40, 80, 120, 160 and 240 mg/day; cited from earlier work
serum uric acid (sUA) [2] = test: Example 2 clinical trial: arhalofenate 400 mg increasing to 600 mg in combination with febuxostat 80 mg in gout patients with hyperuricemia, serum uric acid; format: in vivo, human; details: Day 8, after 1 week febuxostat 80 mg daily
Method: This study evaluated the efficacy, safety and tolerability of arhalofenate at 400 mg increasing to 600 mg daily orally in combination with febuxostat 80 mg daily orally in gout patients (per criteria of the American Rheumatism Association) with hyperuricemia.
In addition to colchicine 0.6 mg daily for flare prophylaxis, all patients received febuxostat and arhalofenate in the following order during the Treatment Phase: • Days 1 through 7: febuxostat 80 mg orally once daily (febuxostat only period) • Days 8 through 21: febuxostat 80 mg plus arhalofenate 400 mg orally once daily (febuxostat plus arhalofenate 400 mg period) • Days 22 through 35: febuxostat 80 mg plus arhalofenate 600 mg orally once daily (febuxostat plus arhalofenate 600 mg period)
The sUA levels were assessed before the start of each dosing period (Day 1, Day 8, Day 22) and at the end of the Treatment Phase (Day 36). Serum urate levels were also measured on the last day of each dosing period (Day 7, Day 21, and Day 35) at 4 different time points; pre-dose (fasting), 2 hours post-dose, 6 hours post-dose, and 10 hours post-dose.
Dose/Route/Regimen • Colchicine: 0.6 mg/oral/daily from Day −16 through Day 49 • Febuxostat: 80 mg/oral/daily from Day 1 through Day 35 • Arhalofenate: 400 mg/oral daily from Day 8 through Day 21; 600 mg/oral/daily from Day 22 through Day 35
Duration of Treatment • Phase 1: Screening Phase: 1 to 4 weeks • Phase 2: Run-in/Stabilization Phase: ≥2 weeks • Phase 3: Treatment Phase: 5 weeks • Phase 4: Follow-up Phase: 2 weeks

[3] = placebo + allopurinol 300 mg once daily oral, Week 4 (LOCF), N = 31
[4] = placebo + allopurinol 300 mg once daily oral, Week 4, N = 31
[5] = placebo + allopurinol 300 mg, Week 4

O=c1[nH]cnc2[nH]ncc12 [Placebo + Allopurinol, 1,5-dihydro-4H-pyrazolo [3,4-d]pyrimidin-4-one]
% Change from Baseline in Uric Acid, Mean (serum uric acid (sUA) [1]; [3]): −9.5% | % Change from Baseline in Uric Acid, Median (serum uric acid (sUA) [1]; [3]): −8.7% | Uric Acid at End of Treatment (LOCF), Mean (serum uric acid (sUA) [1]; [4]): 6.3 mg/dL | Uric Acid at End of Treatment (LOCF), Median (serum uric acid (sUA) [1]; [4]): 6.2 mg/dL | patients with sUA<4.0 mg/dL by End of Treatment (serum uric acid (sUA) [1]; [5]): 1 patients | patients with sUA<5.0 mg/dL by End of Treatment (serum uric acid (sUA) [1]; [5]): 4 patients | patients with sUA<6.0 mg/dL by End of Treatment (serum uric acid (sUA) [1]; [5]): 11 patients

O=c1[nH]cnc2c(CN3C[C@H](CO)[C@@H](O)C3)c[nH]c12 [Ulodesine, 7-(((3R,4R)-3-hydroxy-4-(hydroxymethyl)pyrrolidin-1-yl)methyl)-3H-pyrrolo[3,2-d]pyrimidin-4(5H)-one]
effect on serum uric acid in gout patients (serum uric acid): rapidly and significantly reduced serum uric acid

Cc1nc(-c2ccc(OCC(C)C)c(C#N)c2)sc1C(=O)O [febuxostat, 2-(3-cyano-4-isobutoxyphenyl)-4-methyl-1,3-thiazole-5-carboxylic acid]
mean absolute reduction in sUA from Day 1 (serum uric acid (sUA) [2]): -4.3 mg/dL | mean percent reduction in sUA from Day 1 (serum uric acid (sUA) [2]): −47.8% | Patients reached target: No, sUA < 3.0 mg/dL (serum uric acid (sUA) [2]; 11 patients): 11 patients | Patients reached target: No, sUA < 4.0 mg/dL (serum uric acid (sUA) [2]; 11 patients): 10 patients | Patients reached target: No, sUA < 5.0 mg/dL (serum uric acid (sUA) [2]; 11 patients): 5 patients | Patients reached target: No, sUA < 6.0 mg/dL (serum uric acid (sUA) [2]; 11 patients): 0 patients | Patients reached target: Yes, sUA < 3.0 mg/dL (serum uric acid (sUA) [2]; 11 patients): 0 patients | Patients reached target: Yes, sUA < 4.0 mg/dL (serum uric acid (sUA) [2]; 11 patients): 1 patients | Patients reached target: Yes, sUA < 5.0 mg/dL (serum uric acid (sUA) [2]; 11 patients): 6 patients | Patients reached target: Yes, sUA < 6.0 mg/dL (serum uric acid (sUA) [2]; 11 patients): 11 patients | Proportion of patients reached target, sUA < 3.0 mg/dL (serum uric acid (sUA) [2]; 11 patients): 0.00% | Proportion of patients reached target, sUA < 4.0 mg/dL (serum uric acid (sUA) [2]; 11 patients): 9% and 9.09% | Proportion of patients reached target, sUA < 5.0 mg/dL (serum uric acid (sUA) [2]; 11 patients): 55% and 54.55% | Proportion of patients reached target, sUA < 6.0 mg/dL (serum uric acid (sUA) [2]; 11 patients): 100%
